ChEMBL document CHEMBL4811216, “Chemotherapy for human schistosomiasis: how far have we come? What's new? Where do we go from here?” (RSC Med Chem, 2020)
Values belong to the compound of their own block, whether it stands above or below them.

Columns and labels:
Schistosoma mansoni [1] = assay: Antischistosomal activity against adult Schistosoma mansoni LE assessed as worm mortality at 100 ug/ml incubated for 72 hrs by inverted microscopic method relative to control; format: functional
Schistosoma mansoni [2] = assay: Antischistosomal activity against Schistosoma mansoni LE schistosomula assessed as reduction in worm vitality measured every 24 hrs by inverted microscopy; format: functional, organism-based
Schistosoma mansoni [3] = assay: Antischistosomal activity against adult Schistosoma mansoni LE assessed as reduction in worm vitality measured every 24 hrs by inverted microscopy; format: functional, organism-based
Schistosoma mansoni [4] = assay: Antischistosomal activity against Schistosoma mansoni LE assessed as worm mortality at 100 ug/ml measured after 72 hrs by inverted microscopic method relative to control; format: functional
Schistosoma mansoni [5] = assay: Antischistosomal activity against Schistosoma mansoni LE assessed as worm mortality at 100 ug/ml measured after 144 hrs by inverted microscopic method relative to control; format: functional; conditions: dose 100 µg/ml
Schistosoma mansoni [6] = assay: Antischistosomal activity against Schistosoma mansoni BH infected in Swiss Webster mouse assessed as worm burden reduction at 100 mg/kg, po administered for 5 consecutive days and measured 15 days post-treatment (reference value: 19.8%); format: functional; parameters: scale not given: the % may be the effect or the level left; conditions: time 15 day
Schistosoma mansoni [7] = assay: Antischistosomal activity against Schistosoma mansoni at 50 uM measured after 120 hrs relative to control; format: functional
Schistosoma mansoni [8] = assay: Antischistosomal activity against Schistosoma mansoni NRMI schistosomula incubated for 24 hrs; format: functional
Schistosoma mansoni [9] = assay: Antischistosomal activity against adult Schistosoma mansoni Liberian at 10 uM measured after 24 hrs relative to control; format: functional
Schistosoma mansoni [10] = assay: Antischistosomal activity against Schistosoma mansoni Liberian NTS at 10 uM measured after 24 hrs relative to control; format: functional
Schistosoma mansoni [11] = assay: microbe, parasite or virus in culture; conditions: 72 h
Description: Antischistosomal activity against Schistosoma mansoni incubated for 72 hrs by inverted microscopic method

Schistosoma haematobium = assay: Antischistosomal activity against Schistosoma haematobium at 10 uM measured after 72 hrs relative to control; format: functional
Schistosoma mansoni [12] = assay: Antischistosomal activity against adult Schistosoma mansoni Liberian at 10 uM measured after 48 hrs relative to control; format: functional
Schistosoma mansoni [13] = assay: microbe, parasite or virus in culture; conditions: Liberian, 72 h
Description: Antischistosomal activity against Schistosoma mansoni Liberian NTS incubated for 72 hrs by microscopic method

Schistosoma mansoni [14] = assay: Antischistosomal activity against adult Schistosoma mansoni LE assessed as reduction in motor activity at 10 uM measured after 24 hrs by inverted microscopy relative to control; format: functional; parameters: scale not given: the % may be the effect or the level left
Schistosoma mansoni [15] = assay: Antischistosomal activity against adult Schistosoma mansoni LE assessed as reduction in motor activity at 50 uM measured after 24 hrs by inverted microscopy relative to control; format: functional; parameters: scale not given: the % may be the effect or the level left
Schistosoma mansoni [16] = assay: Antischistosomal activity against adult Schistosoma mansoni LE assessed as seperation of male and female worms at 10 uM measured after 24 hrs by inverted microscopy relative to control; format: functional
Schistosoma mansoni [17] = assay: Antischistosomal activity against Schistosoma mansoni LE assessed as worm vitality at 20 uM incubated for 24 hrs by microscopic method relative to control; format: functional
Schistosoma mansoni [18] = assay: Antischistosomal activity against Schistosoma mansoni LE assessed as worm mortality at 20 uM incubated for 72 hrs by microscopic method relative to control; format: functional
[19] = Oral bioavailability in C57BL/6 mouse at 20 mg/kg; format: ADME, organism-based; conditions: in vivo
Schistosoma mansoni [20] = assay: Antischistosomal activity against Schistosoma mansoni incubated for 72 hrs by microscopic method; format: functional, organism-based
Schistosoma japonicum = assay: Antischistosomal activity against juvenile Schistosoma japonicum assessed as reduction in worm vitality at 25 uM incubated for 72 hrs relative to control; format: functional; parameters: scale not given: the % may be the effect or the level left
[21] = Cmax in C57BL/6 mouse at 20 mg/kg, po measured after 3 hrs; format: ADME, organism-based; parameters: route oral, dose 20 mg/kg, time 3 hrs; conditions: in vivo
[22] = Volume of distribution in C57BL/6 mouse at 20 mg/kg, po; format: ADME, organism-based; conditions: in vivo
[23] = Half life in C57BL/6 mouse at 20 mg/kg, po; format: ADME, organism-based; conditions: in vivo
Schistosoma mansoni [24] = assay: Antischistosomal activity against adult Schistosoma mansoni infected in NMRI mouse assessed as worm burden reduction at 400 mg/kg, po administered as single dose and measured at 21 days post treatment relative to control; format: functional; parameters: scale not given: the % may be the effect or the level left; conditions: time 21 day
Schistosoma mansoni [25] = assay: Antischistosomal activity against adult Schistosoma mansoni assessed as worm mortality at 10 uM measured up to 72 hrs by microscopic method relative to control; format: functional; conditions: time hrs <=72
Schistosoma mansoni [26] = assay: Antischistosomal activity against Schistosoma mansoni NTS assessed as worm mortality at 10 uM measured up to 72 hrs by microscopic method relative to control; format: functional; conditions: time hrs <=72
Schistosoma mansoni [27] = assay: Antischistosomal activity against Schistosoma mansoni infected in NMRI mouse assessed as reduction in total worm burden at 400 mg/kg, po measured after 21 days relative to control; format: functional; parameters: scale not given: the % may be the effect or the level left; conditions: time 21 day
Schistosoma mansoni [28] = assay: Antischistosomal activity against adult Schistosoma mansoni measured up to 72 hrs by microscopic method; format: functional, organism-based
Schistosoma mansoni [29] = assay: Antischistosomal activity against Schistosoma mansoni infected in NMRI mouse assessed as reduction in female worm burden at 400 mg/kg, po measured after 21 days relative to control; format: functional; parameters: scale not given: the % may be the effect or the level left; conditions: time 21 day
Schistosoma mansoni [30] = assay: Antischistosomal activity against Schistosoma mansoni LE larva at […] measured within 48 hrs by inverted microscopic method relative to control; format: functional; conditions: dose 2.5 µg/ml
Schistosoma mansoni [31] = assay: Antischistosomal activity against Schistosoma mansoni LE infected in BALb/C mouse assessed as reduction in worm burden at 400 mg/kg, po administered as single dose and measured after 15 days relative to control; format: functional; parameters: scale not given: the % may be the effect or the level left; conditions: time 15 day
Schistosoma mansoni [32] = assay: Antischistosomal activity against adult Schistosoma mansoni LE assessed as worm mortality at 100 ug/ml measured after 96 hrs by inverted microscopic method relative to control; format: functional
Schistosoma mansoni [33] = assay: Antischistosomal activity against adult Schistosoma mansoni LE assessed as worm mortality measured after 96 hrs by inverted microscopic method; format: functional, organism-based

SMILES: O=C1c2ccccc2C(=O)N1C/C=N/N=c1\[nH]c(-c2ccccc2)cs1
mortality at 100 µg/mL (Schistosoma mansoni [1]): 100% | EC50 (Schistosoma mansoni [2]): 5.15 µM | EC50 (Schistosoma mansoni [3]): 37.5 µM

SMILES: COc1ccc(-c2cs/c(=N/N=C/CN3C(=O)c4ccccc4C3=O)[nH]2)cc1
mortality at 100 µg/mL (Schistosoma mansoni [4]): 60% | Activity (Schistosoma mansoni [5]): 100%

SMILES: CN(Nc1ccc(Cl)cc1)C1NC(=O)N(Cc2ccccc2)C1=S (stereo not given)
Activity (Schistosoma mansoni [6]): 70.5% | Activity (Schistosoma mansoni [7]): 100%

SMILES: CC(C)c1cc2c(cc1O)C(=O)C[C@H]1C(C)(C)CCC[C@]21C
LC50 (Schistosoma mansoni [8]): 19.1 µM

IC50 (Schistosoma mansoni [11]): 3 µM | IC50 (Schistosoma mansoni [13]): 0.8 µM
SMILES: CN1CCN(CCCOc2ncc(Nc3ncc(-c4ccc(C(F)(F)F)c(F)c4)nc3C(N)=O)cn2)CC1
Activity (Schistosoma mansoni [9]): 70% | Activity (Schistosoma mansoni [10]): 100% | Activity (Schistosoma haematobium): 100% | Activity (Schistosoma mansoni [12]): 100%

SMILES: COc1cc(C[C@@H]2C(=O)OC[C@H]2Cc2cc(OC)c3c(c2)OCO3)cc(OC)c1OC
Activity (Schistosoma mansoni [14]): 100% | Activity (Schistosoma mansoni [15]): >75% | Activity (Schistosoma mansoni [16]): >85%

SMILES: COc1cc(OC)c(/C=C2\NC(=O)N(Cc3c(F)cccc3Cl)C2=S)c(OC)c1
Activity (Schistosoma mansoni [17]): 100% | Activity (Schistosoma mansoni [18]): 100%

bioavailability [19]: < 1% | IC50 (Schistosoma mansoni [20]): 0.38 µM | Cmax [21]: 300 nM | Vd [22]: 0.18 L/kg | t1/2 [23]: 18 min
SMILES: N#Cc1c(C(F)(F)F)cc(NCc2ccccc2F)n2c1nc1cc(Cl)c(Cl)cc12
Activity (Schistosoma japonicum): <1% | Activity (Schistosoma mansoni [24]): 69%

SMILES: CCNCCNc1cc(-c2ccc(Cl)cc2)c(C#N)c2nc3ccccc3n12
mortality at 10 µM (Schistosoma mansoni [25]): > 60% | mortality at 10 µM (Schistosoma mansoni [26]): > 70% | Activity (Schistosoma mansoni [27]): 58.7% | IC50 (Schistosoma mansoni [28]): 2.44 µM | Activity (Schistosoma mansoni [29]): 61.3%

SMILES: O=C1c2ccccc2C(=O)N1Nc1nc(-c2ccc(Cl)cc2Cl)cs1
mortality at […] (Schistosoma mansoni [30]): 100% | Activity (Schistosoma mansoni [31]): 85% | mortality at 100 µg/mL (Schistosoma mansoni [32]): 100% | EC50 (Schistosoma mansoni [33]): 50.6 µM
